Patent publication US12133915B2, “Method of treating epilepsy” (ALEXZA PHARMACEUTICALS, INC., priority 2016, dated 2024)

Experiments:
[1] = system: patients with photosensitive epilepsy (IPS-induced photoparoxysmal EEG response); experiment: Intermittent photic stimulation (IPS) photosensitivity model, Phase 2a proof-of-concept study; type: in vivo, human
Protocol: Example 1 evaluated the ability of inhaled alprazolam to rapidly suppress photosensitivity in a double blind placebo-controlled crossover proof of concept study. This study was an in-clinic, randomized, placebo-controlled, double-blind design, 5-way crossover study design, which allowed for small patient size. Epilepsy patients were evaluated using an Intermittent Photic Stimulation model, allowing for screening for antiepileptic effects without triggering seizures or convulsive responses. Three doses of alprazolam were investigated along with placebo (twice) in 5 subjects.
In patients with photosensitive epilepsy, intermittent photic stimulation was used to elicit generalized epileptiform EEG activity. The subject is exposed to certain frequency of light stimulation (flash frequencies), and photosensitivity range measured. The model has been used to identify antiepileptic effects on a number of drugs.
The primary objectives of the study were to assess 1) the effects of inhaled alprazolam on the IPS-induced photoparoxysmal EEG response in patients with epilepsy, 2) the sedative properties of these doses in order to select maximally-effective dose with the least sedation for further clinical studies, and 3) overall safety. The primary endpoint was the change in the Standard Photosensitivity Range (SPR) in subjects receiving each dose of inhaled alprazolam.
(§1) Patients at least 18 years old with photosensitive epilepsy at 3 sites were tested on a baseline day, and then received in randomized order either inhaled placebo (on 2 days) or 0.5, 1 or 2 mg inhaled alprazolam delivered using a hand-held inhaled alprazolam device. Study days were separated by at least 1 week. Presence (and degree) of photosensitivity was measured predose, then at 2 min, 10 min, 30 min, 1, 2, 4 and 6 hours post-dose. Plasma concentration of study drug was measured at each time point. Sedation was assessed at each time point using the 100-mm linear visual analogue scale (VAS).
The test subjects were exposed to intermittent photic stimulation (14 frequencies, from 2 to 60 Hz), starting with lowest frequency and increasing frequency stepwise until a photosensitivity response was elicited. The test was repeated with the highest frequency and decreased frequency. The results can be summarized in a quantitative measure known as the Standardized Photosensitive Range (SPR). The Maximum SPR is 14. In the example shown, SPR is 8. The Primary endpoint is reduction in mean SPR, which is an indication of antiseizure activity. Patients that have a relatively stable SPR were enrolled in the study to allow for small study size.

[2] = system: patients with photosensitive epilepsy; experiment: Sedation by visual analogue scale (VAS), Phase 2a study; type: in vivo, human
Protocol: as §1
(§2) Secondary study endpoints included assessment of sedation using two visual analogue scales (VAS); correlation of plasma concentrations of inhaled alprazolam with PD effects on the SPR range; correlation of plasma concentrations of inhaled alprazolam with PD effects on sedation; and assessment of adverse events and changes in the neurological examination.
Assessment of the sedation using 2 visual analogue scales was made. […] A correlation of plasma concentrations of inhaled alprazolam with pharmacodynamic effects on sedation was made. […] Maximum sedation occurred within about two minutes of administration of alprazolam. Clinical observations support early onset of sedation at 30 seconds.

[3] = Plasma concentration of alprazolam in phase 1 and phase 2a clinical trials; type: in vivo, human
Protocol: as §1
FIGS. 5A and 5B show graphs of the mean plasma concentration of alprazolam in phase 1 and phase 2a clinical trials respectively. The graphs indicate a rapid uptake of alprazolam into the plasma after […] administration of the condensation aerosol. […] Mean peak plasma concentration occurred one to two minutes after administration of the alprazolam […] aerosol.

[4] = system: patients with photosensitive epilepsy; experiment: Adverse events and tolerability, Phase 2a study; type: in vivo, human; details: for Cough, subjects with adverse event / Dizziness, subjects with adverse event / Dysgeusia, subjects with adverse event / Oral Dysaesthesia, subjects with adverse event / Sedation/somnolence, subjects with adverse event: N = 5
Excerpt: as §2
An assessment of adverse events and changes in the neurological examination were made. The safety profile was consistent with oral alprazolam.

[5] = Pharmacokinetic study in dogs, intravenous or inhalation administration; details: dog, in vivo
Excerpt: In a pharmacokinetic (PK) study in dogs, alprazolam PK was profiled following either intravenous or inhalation administration.

dogs [6] = experiment: 5-day exploratory inhalation toxicity study in dogs; type: in vivo; details: 5-day inhalation
Protocol: In a 5-day exploratory inhalation toxicity study in dogs, the no-observed-adverse-effect level was 1.5 mg/kg/day for treatment-related histopathological findings.

dogs [7] = experiment: Cardiovascular and respiratory safety study in dogs, intravenous dosing; type: in vivo
Protocol: However, these changes were within normal ranges and not considered biologically significant. The plasma concentration of alprazolam associated with modest cardiovascular or respiratory effects exceeded 900 ng/mL and would not be expected to induce any significant changes at the range of doses planned considered for clinical studies (0.5 to 2.0 mg).

rat = experiment: Rat inhalation MTD study; type: in vivo
rats = experiment: 14-day inhalation toxicity study in rats; type: in vivo
Protocol: In the 14-day inhalation toxicity study in rats, the no-adverse-effect level was considered to be 10.3 mg/kg/day.

drug transporter = experiment: In vitro drug transporter inhibition potential; type: in vitro ADME; details: maximum alprazolam concentration tested
Excerpt: (§3) In vitro drug transporter and cytochrome P450 inhibition potential were also studied.

cytochrome P450 = experiment: In vitro cytochrome P450 inhibition potential; type: in vitro ADME; details: maximum alprazolam concentration tested
Excerpt: as §3

[8] = Aerosol particle size distribution by Next Generation Pharmaceutical Impactor (NGI); type: physicochemical; details: condensation aerosol, FIG. 4
Excerpt: At least 80% by weight of the alprazolam aerosol particles have a size less than 5 microns, preferably at least 90% by weight of the alprazolam aerosol particles have a size less than 5 microns. At least 50% by weight of the alprazolam aerosol particles have a size less than 2 microns, preferably at least 50% by weight of the alprazolam aerosol particles have a size less than 1 micron. The Next Generation Pharmaceutical Impactor (NGI) was used to determine the particle size distribution.

[9] = cited from earlier work
dogs [10] = experiment: 28-day GLP inhalation toxicity study with 14-day recovery in dogs; details: 28-day inhalation
[11] = all treatment arms of the crossover (incl. placebo)

Cc1nnc2n1-c1ccc(Cl)cc1C(c1ccccc1)=NC2 [alprazolam, 8-chloro-1-methyl-6-phenyl-4H-[1,2,4]triazolo [4,3-α][1,4]-benzodiazepine]
effect on photosensitivity ([1]; 1 mg and 2 mg doses): almost complete elimination of the photosensitivity | time reduction of SPR was maintained ([1]; after administration): at least six | change in mean standardized photosensitivity range (SPR) ([1]; all doses (0.5, 1, 2 mg inhaled)): decreased | time to maximal or near-maximal effect on SPR ([1]; all doses, post dose): ≤ 2 min | maximal decrease in SPR ([1]; at least at the earlier time points): approximately 5 steps | duration of effects on SPR ([1]; higher doses): 4 h | onset of SPR response ([1]; in vivo): less than two | time to suppression of epileptic activity / effects on EEG ([1]; patients with photosensitive epilepsy): ≤ 2 min | epileptiform activity in post-dose EEG traces ([1]; representative patient, FIG. 7B): complete abolishment of epileptiform activity | sedation, relation to dose ([2]; 0.5, 1, 2 mg): dose related | time to maximum sedation (VAS) ([2]; after administration): two | early onset of sedation, clinical observations ([2]; in vivo): 30 s | onset of VAS (sedation) response ([2]; in vivo): less than two | PK analysis, plasma concentrations versus dose ([3]; 0.5, 1, 2 mg): dose proportionality | time of mean peak plasma concentration ([3]; after administration of condensation aerosol): one to two | rapid rise in alprazolam plasma levels, time ([3]; inhaled): less than 2 min | Cough, subjects with adverse event ([4]; 0.5 mg): 2 n | Dizziness, subjects with adverse event ([4]; 0.5 mg): 1 n | Dysgeusia, subjects with adverse event ([4]; 0.5 mg): 2 n | Oral Dysaesthesia, subjects with adverse event ([4]; 0.5 mg): 2 n | Sedation/somnolence, subjects with adverse event ([4]; 0.5 mg): 1 n | Cough, subjects with adverse event ([4]; 1 mg): 1 n | Dizziness, subjects with adverse event ([4]; 1 mg): 0 n | Dysgeusia, subjects with adverse event ([4]; 1 mg): 2 n | Oral Dysaesthesia, subjects with adverse event ([4]; 1 mg): 0 n | Sedation/somnolence, subjects with adverse event ([4]; 1 mg): 2 n | Cough, total number of subjects experiencing an event [4, 11]: 2 | Dizziness, total number of subjects experiencing an event [4, 11]: 1 | Dysgeusia, total number of subjects experiencing an event [4, 11]: 2 | Oral Dysaesthesia, total number of subjects experiencing an event [4, 11]: 2 | Sedation/somnolence, total number of subjects experiencing an event [4, 11]: 2 | serious adverse events ([4]; doses up to 2 mg, listed as inhaled alprazolam): no reported serious adverse events | tolerability of treatment ([4]; in vivo): well tolerated | Tmax ([5]; inhaled or intranasal, inhalation): < 1 min | bioavailability ([5]; inhaled, inhalation versus intravenous): 85 to 96% | no-observed-adverse-effect level for treatment-related histopathological findings (dogs [6]): 1.5 mg/kg/day | plasma concentration associated with modest cardiovascular or respiratory effects (dogs [7]; intravenous): exceeded 900 ng/mL | heart rate (dogs [7]; intravenous over 5 sec): transient increase | respiratory rate (dogs [7]; intravenous over 5 sec): transient decrease | single inhaled dose well tolerated (rat): up to 10.8 mg/kg | no-adverse-effect level (rats): 10.3 mg/kg/day | drug transporter inhibition (drug transporter): No inhibition | cytochrome P450 inhibition (cytochrome P450): No inhibition | mass median aerodynamic diameter (MMAD) of aerosol particles [8]: 1.2 to 1.8 microns | solubility in chloroform ([9]; chloroform): freely soluble | solubility in ethanol ([9]; ethanol): soluble | solubility in methanol ([9]; methanol): soluble | solubility in water ([9]; water): practically insoluble | deaths during the study (dogs [10]): no deaths | immunogenic potential (dogs [10]): no immunoglobulin or hypersensitivity response | no-observed-effect level for histopathological findings (dogs [10]; females): 4.4 mg/kg/day | no-observed-effect level for histopathological findings (dogs [10]; males): 2.8 mg/kg/day
